The values below are quoted from earlier work in patent publication US9695131B2, “Substituted uracils as chymase inhibitors” (Bayer Pharma Aktiengesellschaft, priority 2013, dated 2017).

The structures appear in SMILES notation.

The series relates to hamsters with myocardial infarction.

Regarding `CCOc1ccccc1CC1C(=O)N(C(=O)NC(c2ccc(C)cc2)c2ccc(C)cc2)C1Oc1ccc(C(=O)O)cc1` (stereo not drawn) [BCEAB], the chymase activity entry is “reduced”, the haemodynamics entry is reported as “improved” and the mortality entry is “reduced”.
